Legend:
cancer cells = conditions: D9-THC (4-10 µM); cited from earlier work
PANC-1 cells = experiment: Viability assay (XTT) of PANC-1 cells; format: cell-based, Human; conditions: 72 hours; for % viability at the potent concentrations: CBD 40-100 μM, THC 100-375 μM, no dose response
Description: (§1) • a. PANC-1 cells (Human Pancreatic Cancer cells) (American Type Culture Collection, Rockville, MD, USA). • b. EGL-1 cells (Human extrahepatic cholangio carcinoma) Cell Growth:
Growth medium for PANC-1/EGL-1 cells: Dulbecco's Modified Eagle Medium (DMEM) high glucose supplemented with 10% Fetal Bovine Serum (FBS), 2 mM L-Glutamine, and 1% Penicillin-Streptomycin solution (PS).
Assay medium for PANC-1: Assay medium contained only 1% FBS.
(§2) • a. Cells were harvest at 80% confluence, counted and re-suspend to final concentration of 75×10^3/ml (PANC-1) or 50×103 (EGL-1) in growth medium. • b. Panc-1 cell suspension was seeded in 96-well microtiter plate at 7500 cells/100 μl/well and EGL-1 cell suspension was seeded in 96-well microtiter plate at 5000 cells/l100p/well. • c. Cells were incubated (37±10 C, 5% CO2) for 18-24 hrs. • d. Growth medium was removed; 80 μL assay medium and 20 μL Vehicle, Test Item, and Controls were added. […] The content of all wells was mixed by pipetting up and down three times. • f. Plates were incubated for 72±2 h (37±1° C., 5% CO2). • g. The medium on all plates was replaced with 100 μl culture medium. XTT Assay • a. XTT reaction solution was prepared. • b. 50 μl of the XTT reaction solution was added into each well. • c. Plates were incubated in a humidified atmosphere (e.g. 37° C., 5% CO2). • d. The plates were shaken gently to evenly distribute the dye in the wells. • e. The absorbance of the samples was measure against a background control as a blank with a spectrophotometer (ELISA reader) at a wavelength of 450 nm. • f. In order to measure reference absorbance (to measure non-specific readings), a wavelength of 620 nm was used to subtract from the 450 nm measurement. • g. The idle absorbance of the cells was 0.5-1.5 in all wells.

EGL-1 cells = experiment: Viability assay (XTT) of EGL-1 cells; format: cell-based, Human; conditions: 72 hours; for % viability at the potent concentrations: CBD 40-100 μM, THC 100-375 μM
Description: as §1
Growth medium for EGL-1 cells: RPMI-1640 medium supplemented with 10% Fetal Bovine Serum (FBS), 2 mM L-Glutamine, and 1% Penicillin-Streptomycin solution (PS).
Assay medium for EGL-1: Assay medium contained only 1% FBS in DMEM low glucose (1 g/L)
as §2

[1] = test system: NO secretion from RAW cells; experiment: Nitric Oxide (NO) test (Griess test) on supernatants of LPS-stimulated RAW cells; format: cell-based, Murine; conditions: for concentration effective in inhibiting NO secretion without affecting cells' viability / Cannabinoid NO: RAW cells 24 h; for % inhibition of NO secretion: vs vehicle
Description: • a. ⅔ of total final volume of warm water for injection (42° C.) was added to the dry mushroom powder. • b. The suspension was vortexed and centrifuged (4100 rpm, RT, 5 min). • c. The supernatant containing the water-soluble fraction was separated into a clean tube. • d. 5% of total final volume of EtOH was added to the pellet and vortexed to extract ethanol-soluble fractions. Water was added q.s. ad. final volume. • e. The suspension was vortexed and centrifuged. The resulting supernatant was combined and centrifuged again to remove debris, yielding a final concentration of 50 mg/ml. • f. The resulting solution was passed through a cell strainer (40-70 micron). • g. Two additional stocks were prepared in vehicle (5% EtOH in WFI): 10 mg/ml and 2 mg/ml. • h. All Test items/Vehicle were added to the cells at 4 μL into 96 μL medium, yielding final working concentrations of: 2 mg/ml, 0.4 mg/ml, and 0.08 (in 0.2% EtOH, 4% WFI). […] Cell Medium Formulations:
(§3) • a. Cells were harvested at 80% confluence, counted and re-suspend to final concentration of 1×10^6/ml in growth medium. • b. […] Cells were incubated (37±10 C, 5% CO2) for 18-24 hrs. • d. Growth medium was removed; […] medium and 4 μL Vehicle, Test Item, and Controls were added. • e. The content of all wells was mixed by pipetting up and down three times. • f. Plates were incubated for 2 h (37±1° C., 5% CO2). • g. LPS (10 μl, final concentration of 100 ng/ml LPS) was added to all wells. • h. The content of all wells was mixed by pipetting up and down three times. • i. Plates were incubated for 24±2 h (37±1° C., 5% CO2). • j. Medium was collected from the 96-microtiter plate: 50 μl for NO secretion assay and the rest was stored in −20° C. for cytokine secretion assay.
Cell Proliferation and Viability (XTT Assay) • a. XTT reaction solution was prepared. • b. 50 μl of the XTT reaction solution was added into each well. • c. Plates were incubated in a humidified atmosphere (e.g. 37° C., 5% CO2). • d. The plates were shaken gently to evenly distribute the dye in the wells. • e. The absorbance of the samples was measure against a background control as a blank with a spectrophotometer (ELISA reader) at a wavelength of 450 nm. • f. In order to measure reference absorbance (to measure non-specific readings), a wavelength of 620 nm was used to subtract from the 450 nm measurement. • g. […] Nitric Oxide (NO) Test (Griess Test) • a. The Sulfanilamide Solution and NED Solution were allowed to equilibrate to room temperature (15-30 minutes). • b. 1 ml of a 100 μM nitrite solution was prepared by diluting the provided 0.1M Nitrite Standard 1:1,000 in culture medium. • c. 2 columns (16 wells) were designate in the non-binding 96-well plate for the Nitrite Standard reference curve. 50 μl of assay medium were dispensed into the wells in rows B-H (FIG. 1). • d. 100 μl of the 100 μM nitrite solution was added to the remaining 2 wells in row A. serial twofold dilutions (50 μl/well) were performed immediately in duplicate down the plate to generate the Nitrite Standard reference curve (100, 50, 25, 12.5, 6.25, 3.13 and 1.56 μM), discarding 50 μl from the 1.56 μM set of wells • e. 50 μl of the Sulfanilamide Solution were dispensed to all experimental samples and wells containing the dilution series for the Nitrite Standard reference curve. • f. The plate was incubated 5-10 minutes at room temperature, protected from light. • g. 50 μl of the NED Solution was dispensed to all wells. • h. The plate was incubated 5-10 minutes at room temperature, protected from light. • i. Absorbance was measured within 30 minutes in a plate reader with a filter between 520 nm and 550 nm. • j.

[2] = test system: U373-MG (glioblastoma) cells; conditions: D9-THC at 100-300 nM; cited from earlier work
[3] = test system: NCl-H292 (lung cancer) cells; conditions: D9-THC at 100-300 nM; cited from earlier work
[4] = test system: TNFα secretion from RAW cells; experiment: TNFα secretion, Multiplex analysis of medium of LPS-stimulated RAW cells; format: cell-based, Murine; conditions: CBD (15 μM), THC (20 μM)
Description: as §3
(§4) Cytokine Secretion • a. Reishi, Cordyceps M, Agaricus blazei, and Cordyceps Cs-4 were incubated with […] at 0.08-2 mg/ml for 24 hours. • b. Medium from cells was collected for Multiplex analysis (CCL3/MIP1α, IL-6, IL-1β, TNFα, IL-10 and IL-6) in duplicates. • c.
(§5) Cytokine Secretion • a. CBD (15 μM) and THC (20 μM) were incubated with […]. • b. Medium from cells was collected for Multiplex analysis (CCL3/MIP1α, IL-6, IL-1β, TNFα, IL-10 and IL-6) in duplicates. • c. […] IL-6 secretion: • i. […] TNFα secretion: • i.
(§6) Cytokine Secretion • a. […]

[5] = test system: IL-6 secretion from RAW cells; experiment: IL-6 secretion, Multiplex analysis of medium of LPS-stimulated RAW cells; format: cell-based, Murine; conditions: CBD (15 μM)
Description: as §3, §4, §5, §6

[6] = Mus musculus, read-out: % inhibition of NO secretion

| SMILES | number of apoptotic cells (cancer cells) | concentration at which potent (viability) (PANC-1 cells) | % viability at the potent concentrations (PANC-1 cells) | concentration at which potent (viability) (EGL-1 cells) | % viability at the potent concentrations (EGL-1 cells) | inhibition at 20 µM [1, 6] | concentration effective in inhibiting NO secretion without affecting cells' viability [1] | NO ([1]; THC 20 μM alone) | Cannabinoid NO ([1]; cannabinoid 20 μM) | % inhibition of NO secretion ([1]; cannabinoid 20 μM) | increase in the proliferation rate [2] | increase in the proliferation rate [3] | effect on TNFα secretion (in words) [4] | NO ([1]; CBD 15 μM alone) | inhibition at 15 µM [1, 6] | Cannabinoid NO ([1]; cannabinoid 15 μM) | % inhibition of NO secretion ([1]; cannabinoid 15 μM) | effect on IL-6 secretion (in words) [5] |
| --- | --- | --- | --- | --- | --- | --- | --- | --- | --- | --- | --- | --- | --- | --- | --- | --- | --- | --- |
| CCCCCc1cc(O)c2c(c1)OC(C)(C)[C@@H]1CCC(C)=C[C@@H]21 [THC, Δ^9-tetrahydrocannabinol] | 30-80% | 100 to 375 µM | 35% | 100 to 375 µM | 15% | 66.7% | 20 µM | 3.72 µM | 8.77 µM | 54.4% | 2 fold | 1.2 fold | did not affect TNFα secretion |  |  |  |  |  |
| C=C(C)[C@@H]1CCC(C)=C[C@H]1c1c(O)cc(CCCCC)cc1O [CBD, cannabidiol] |  | 40 to 100 µM | 35% | 40 to 100 µM | 15-30% |  | 15 to 20 µM |  | 5.07 µM | 73.6% |  |  | did not affect TNFα secretion | 6.67 µM | 40.2% | 11.8 µM | 38.6% | did not affect IL-6 secretion |

— patent publication US12453750B2, “Fixed dose combination of cannabinoids and medical mushrooms for prevention and treatment of cancer, inflammatory or immune-mediated inflammatory diseases” (priority 2019, dated 2025)
